According to publication PMC11609934, “Exploration and characterization of the antimalarial activity of cyclopropyl carboxamides that target the mitochondrial protein, cytochrome b” (European Journal of Medicinal Chemistry, 2024):
≈ marks a conversion by molar mass, not a printed value. Where two headings read alike, the source gives them in different places.

Columns and labels:
[1] = Human liver microsome stability; assay type: in vitro ADME; conditions: pooled human liver microsomes
Protocol: Human Liver Microsome Stability. A solution of the test compounds in phosphate buffer solution (1 μM) was incubated in pooled human liver microsomes (0.5 mg/mL) for 0, 5, 20, 30, 45 and 60 min at 37 °C in the presence and absence of NADPH regeneration system. The reaction was terminated with the addition of ice-cold acetonitrile containing system suitability standard at designated time points. […] The experiment was carried out in duplicate. Verapamil, diltiazem, phenacetin, and imipramine were used as reference standards.

[2] = tested on: Pf 3D7 3-oxadiazole quinolone resistant strain with a V259L mutation in the Qo site of cyt b; test: Cyt b resistant asexual stage assay, 3D7 cyt b(V259L); assay type: cell-based, Plasmodium falciparum; conditions: for EC50: Plasmodium falciparum, 3D7, 72 h, read-out: Pf cyt b mutant strains EC50 (SD) 3D7 cyt b(V259L)
Protocol: To determine whether the cyclopropyl carboxamide series specifically targets the Qo site of cyt b, representative analogs W466 (1), W499 (2), and the focal compound here-on referred to as WJM280 (108) were evaluated against drug-resistant parasite strains with mutations in the Qo or Qi site of cyt b. […] These mutations are mapped to a model of cyt b in Fig. 3.
(§1) Cyt b Resistant and ScDHODH Asexual Stage Assays. These assays were conducted as previously described. Briefly, asexual parasite strains indicated in Table 12 were incubated with compound in a dose response format for 72 h. Parasitemia was determined using SYBR-green fluorescence measured by flow cytometry (Thermo Fisher Attune). EC50 values were determined as described for the LDH assay.

[3] = tested on: P. falciparum 3D7 parasites; test: P. falciparum 3D7 asexual stage LDH assay (72 h); assay type: cell-based, Plasmodium falciparum; conditions: Plasmodium falciparum, read-out: Pf 3D7 EC50 (SD)
In short: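 Asexual P. falciparum 3D7 parasites were grown for 72 h over a 10-point, 3-fold series starting at 1 μM in 0.1% DMSO, with 100 nM chloroquine as negative growth control. After freeze-thaw, parasite LDH was read at 650 nm, and EC50 came from a variable-slope sigmoidal fit.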

[4] = Aqueous solubility (kinetic in PBS, pH 7.4); assay type: physicochemical; conditions: phosphate buffered saline
Protocol: Solubility. The solubility assay was performed using a miniaturized shake flask method. A solution of phosphate buffered saline (PBS) and the test compound (200 μM) was incubated at 25 °C with constant shaking (600 rpm) for 2 h. The samples were filtered using a multiscreen solubility filter plate. The filtrate was half diluted in acetonitrile. A five-point linearity curve was prepared in PBS:acetonitrile (1:1, v/v) at 200, 150, 75, 25 and 2.5 μM. Blank, linearity and test samples (n = 2) were transferred to a UV readable plate and the plate was scanned for absorbance. Best fit calibration curves were constructed using the calibration standards and used to determine the test sample solubility. The experiment was carried out in duplicate. Diethylstilbestrol, haloperidol, and diclofenac sodium were used as reference standards.

Rat hepatocyte stability = assay type: in vitro ADME; conditions: pooled rat hepatocytes
Protocol: Rat Hepatocyte Stability. A solution of the test compound in Krebs-Henseliet buffer solution (1 μM) was incubated in pooled rat hepatocytes (1 × 10^6 cells/mL) for 0, 15,30,45, 60, 75 and 90 min at 37 °C (5 % CO2, 95 % relative humidity). The reaction was terminated with the addition of ice-cold acetonitrile containing system suitability standard at designated time points. […] The experiment was carried out in duplicate. Diltiazem, 7-ethoxy coumarin, propranolol, and midazolam were used as reference standards.

Pf SB1-A6 strain = test: Asexual stage assay, SB1-A6 strain; assay type: cell-based; conditions: Plasmodium falciparum, 72 h, read-out: SB1-A6 EC50 (SD)
Protocol: (§2) DHODH is essential for the function of the mitochondria ETC and pyrimidine biosynthesis. Compounds that inhibit cyt b typically have reduced activity against parasite strains with increased DHODH levels. To support evidence that the cyclopropyl carboxamide series impacts the mitochondrial ETC, selected analogs were evaluated against both the SB1-A6 strain that has a 2-fold amplification and a C276F SNP in PfDHODH [24] and a Dd2 strain that expresses Saccharomyces cerevisiae DHODH (ScDHODH). ScDHODH has low sequence homology to PfDHODH and is ubiquinone-independent in that it uses fumarate instead of mitochondrial coenzyme Q as an electron acceptor and therefore compounds that inhibit the Plasmodium mitochondrial ETC have reduced activity against the ScDHODH parasite strain.
as §1

[5] = tested on: Pf Dd2 expressing ScDHODH; test: ScDHODH asexual stage assay; assay type: cell-based; conditions: Plasmodium falciparum, DD2, 72 h, read-out: Dd2 ScDHODH EC50 (SD)
Protocol: as §2, §1

SMILES	microsomal CLint at 1 h, 1 µM [1]	fold reduction in activity against cyt b V259L Qo site mutant compared to the Dd2 parent strain [2]	EC50 [2]	EC50 ([3]; 3D7 / DSM 265, parent 3D7 for resistant populations, LDH assay, 3 experiments (SYBR-green for DSM265))	solubility at 2 h [4]	hepatocyte CLint at 1 μM (Rat hepatocyte stability)	EC50 (Pf SB1-A6 strain)	EC50 [5]	EC50 ([3]; 3D7, 72 h, LDH activity of P. falciparum 3D7 parasites over 72 h, means and SDs, three or more experiments)
O=C(NC1CC1)c1ccc(CN(Cc2ccc(Cl)cc2Cl)C2CC2)cc1 [W499 (2)]	177 µL/min/mg	1.5 fold	165 nM	170 nM	7.4 µM (≈ 2.88 µg/mL)	> 92 µL/min/1e6 cells	> 10000 nM	> 10000 nM	
CCCN(Cc1ccc(C(=O)NC2CC2)cc1)Cc1ccc(C(F)(F)F)cc1 [WJM280 (108), N-Cyclopropyl-4-((propyl(4-(trifluoromethyl)benzyl)amino)methyl)benzamide]	62 µL/min/mg	2 fold	23 nM		15 µM (≈ 5.86 µg/mL)	> 92 µL/min/1e6 cells	> 10000 nM	> 10000 nM	40 nM
